Measurements: patent US8524781B2, “Organosulfur compounds, a method of making organosulfur compounds and their use for inhibiting the growth of tumour cells” (University of Cape Town, priority 2008, dated 2013)
Where two headings read alike, the source gives them in different places.

How the values were obtained:
Format in all cases: cell-based
CT-1 cells = test: MTT assay, inhibition of cell growth of CT-1 cells; settings: CT-1 transformed WI38 fibroblasts, 48 hours incubation, read-out: CT1 IC50
Experimental: (§1) The compounds were evaluated for their in vitro ability to inhibit cell growth of cultured tumour cells using the 3-(4,5-dimethylthiazol-2-yl)-2,5-diphenyltetrazolium bromide (MTT) assay. These cell types include:
2. CT-1 cells which are transformed WI38 fibroblasts;
(§2) One oesophageal squamous cell carcinoma cell line WHCO1 originally established from surgical biopsies of primary oesophageal squamous cell carcinomas, a transformed fibroblast cell line CT-1 or human breast epithelial cells MDA-MB-231 were cultured in DMEM containing 10% foetal calf serum and 1% penicillin and streptomycin at 37° C. in a humidified atmosphere of 5% CO2. For the MTT assay, 3×10^3 cells were plated in 96-well plates in 90 μL DMEM per well. Compounds solubilized in DMEM+1% DMSO (10 μl) were added to cells and DMEM+1% DMSO, (10 μl) alone was added to the control to give a final concentration of 0-200 μM compound and 0.1% DMSO. After 48 hours incubation period, 10 μL of the MTT labelling reagent (final concentration 0.45 mg/ml) was added to each well and incubated for 4 hours in a humidified atmosphere at 37° C. One hundred micro litres of the solubilization solution was added to each well and the plates were incubated overnight at 37° C. The spectrophotometric absorbance of the wells was measured at 595 nm using a microtiter plate reader.

WHCO1 cells = test: MTT assay, inhibition of cell growth of WHCO1 cells; settings: for IC50: WHCO1 oesophageal epithelial cancer cells, MTT, 48 hours incubation
Experimental: as §1
3. WHCO1 cells which are oesophageal epithelial cancer cells; and
as §2

MDA-MB-231 cells = test: MTT assay, inhibition of cell growth of MDA-MB-231 cells; settings: MDA-MB-231 human breast epithelial cancer cells, 48 hours incubation
Experimental: as §1
5. MDA-MB-231 cells which are human breast epithelial cancer cells; and
as §2

Q: Which IC50 (CT-1 cells) does the source give for `CCC[S+]([O-])CC=CSSC` (mixture of isomers) [Compound E-15, (E/Z)-2,3,7-trithiadeca-4-ene-7-oxide] here?
A: 10.3 µM

Q: What about the IC50 (WHCO1 cells) of the same compound?
A: 47.4 µM

Q: With `C=CCSSC=CC[S+]([O-])CCCN1C(=O)c2ccccc2C1=O` (mixture of isomers) [Compound E-5, (E/Z)-12-phthalimido-4,5,9-trithiadodeca-1,6-diene-9-oxide] as the compound, how does the IC50 (CT-1 cells) read?
A: 95.9 µM

Q: What about the IC50 (WHCO1 cells) of the same compound?
A: 68.9 µM

Q: How did the IC50 (CT-1 cells; Homo sapiens, WI-38, 48 h) turn out when `C=CCSS/C=C\C[S+]([O-])CCC` (mixture of isomers) [Compound Z-3, (E/Z)-4,5,9-trithiadodeca-1,6-diene-9-oxide] was run?
A: 17 µM

Q: What about the IC50 (WHCO1 cells; WHCO1, 48 h) of the same compound?
A: 21.6 µM

Q: What about the IC50 (MDA-MB-231 cells) of the same compound?
A: 19.2 µM

Q: Which results are given for `C=CCSSC=CC[S+]([O-])C(C)(C)C` (mixture of isomers) [EZ-6, (E/Z)-10,10-dimethyl-4,5,9-trithiaundeca-1,6-diene-9-oxide]?
A: IC50 (CT-1 cells): 33.1 µM; IC50 (WHCO1 cells): 25.4 µM

Q: For `COc1ccc(C[S+]([O-])CC=CSSCc2ccc(F)cc2)cc1` (mixture of isomers) [EZ-10, (E/Z)-1-(p-fluorophenyl)-8-(p-methoxyphenyl)-2,3,7-trithiaocta-4-ene-7-oxide], which IC50 (WHCO1 cells) is on record?
A: 13.6 µM

Q: What does the source list for `COc1ccc(CSSC=CC[S+]([O-])Cc2ccc(OC)cc2)cc1` (mixture of isomers) [EZ-11, (E/Z)-1-(p-methoxyphenyl)-8-(p-methoxyphenyl)-2,3,7-trithiaocta-4-ene-7-oxide]?
A: IC50 (WHCO1 cells): 1.34 µM; activity relative to ajoene at inhibiting growth of WHCO1 oesophageal cancer cells in vitro (WHCO1 cells; compared with ajoene, WHCO1 cells): fifteen times more active than ajoene; IC50 (MDA-MB-231 cells): 0.82 µM

Q: How did the IC50 (CT-1 cells) turn out when `CCC[S+]([O-])CC=CSSCCCNS(=O)(=O)c1cccc2c(N(C)C)cccc12` (mixture of isomers) [EZ-13, (E/Z)-1-(dansylamino)-4,5,9-trithiadodeca-6-ene-9-oxide] was run?
A: 17.7 µM

Q: And the IC50 (WHCO1 cells)?
A: 14.2 µM

Q: And the IC50 (MDA-MB-231 cells)?
A: 42.6 µM

Q: For `CCCSSC=CC[S+]([O-])CCC` (mixture of isomers) [Compound E-14, (E/Z)-4,5,9-trithiadodeca-6-ene-9-oxide], which IC50 (CT-1 cells) is on record?
A: 9.32 µM

Q: What about the IC50 (WHCO1 cells) of the same compound?
A: 33.8 µM

Q: Which IC50 (CT-1 cells) does the source give for `C=CCSSC=CC[S+]([O-])CCCO` (mixture of isomers) [Compound E-4, (E/Z)-4,8,9-trithiadodeca-6,11-diene-1-ol-4-oxide] here?
A: 23.1 µM

Q: And the IC50 (WHCO1 cells)?
A: 26.8 µM

Q: What does the source list for `C=CCSSC=CC[S+]([O-])Cc1ccc(OC)cc1` (mixture of isomers) [EZ-8, (E/Z)-10-(p-methoxyphenyl)-4,5,9-trithiadeca-1,6-diene-9-oxide]?
A: IC50 (CT-1 cells; Homo sapiens, WI-38, 48 h): 11.2 µM; IC50 (WHCO1 cells; WHCO1, 48 h): 7.12 µM; IC50 (MDA-MB-231 cells): 6.6 µM

Q: Which IC50 (CT-1 cells) does the source give for `C=CCSS/C=C/C[S+]([O-])CC=C` (stereo not drawn) [Z-ajoene, 4,5,9-trithiadodeca-1,6,11-triene-9-oxide, reference compound] here?
A: 15.5 µM

Q: And the IC50 (WHCO1 cells)?
A: 20.5 µM

Q: How did the IC50 (CT-1 cells) turn out when `C=CCSSC=CC[S+]([O-])CCCO` (mixture of isomers) [Compound Z-4, (E/Z)-4,8,9-trithiadodeca-6,11-diene-1-ol-4-oxide] was run?
A: 22.8 µM

Q: And the IC50 (WHCO1 cells)?
A: 37.9 µM

Q: What does the source list for `C=CCSSC=CC[S+]([O-])CCCOCc1ccc(OC)cc1` (mixture of isomers) [Compound Z-9, (E/Z)-12-(p-methoxybenzyloxy)-4,5,9-trithiadodeca-1,6-diene-9-oxide]?
A: IC50 (CT-1 cells): 21.7 µM; IC50 (WHCO1 cells): 16.9 µM

Q: For `C=CCSSC=CC[S+]([O-])CCCOCc1ccc(OC)cc1` (mixture of isomers) [Compound E-9, (E/Z)-12-(p-methoxybenzyloxy)-4,5,9-trithiadodeca-1,6-diene-9-oxide], which IC50 (CT-1 cells) is on record?
A: 23.5 µM

Q: And the IC50 (WHCO1 cells)?
A: 19.1 µM

Q: Which IC50 (CT-1 cells; Homo sapiens, WI-38, 48 h) does the source give for `C=CCSS/C=C/C[S+]([O-])CCC` (mixture of isomers) [Compound E-3, (E/Z)-4,5,9-trithiadodeca-1,6-diene-9-oxide] here?
A: 26.7 µM

Q: What about the IC50 (WHCO1 cells; WHCO1, 48 h) of the same compound?
A: 35.8 µM

Q: What about the IC50 (MDA-MB-231 cells) of the same compound?
A: 25.9 µM

Q: With `C=CCSS/C=C/C[S+]([O-])CC=C` (stereo not drawn) [E-ajoene, 4,5,9-trithiadodeca-1,6,11-triene-9-oxide, reference compound] as the compound, how does the IC50 (CT-1 cells; Homo sapiens, WI-38, 48 h) read?
A: 17.6 µM

Q: And the IC50 (WHCO1 cells; WHCO1, 48 h)?
A: 20.9 µM

Q: What does the source list for `C=CCSSC=CC[S+]([O-])Cc1ccccc1` (mixture of isomers) [EZ-7, (E/Z)-10-phenyl-4,5,9-trithiadeca-1,6-diene-9-oxide]?
A: IC50 (CT-1 cells; Homo sapiens, WI-38, 48 h): 16.6 µM; IC50 (WHCO1 cells; WHCO1, 48 h): 8.8 µM

Q: With `C=CCSSC=CC[S+]([O-])CCCN1C(=O)c2ccccc2C1=O` (mixture of isomers) [Compound Z-5, (E/Z)-12-phthalimido-4,5,9-trithiadodeca-1,6-diene-9-oxide] as the compound, how does the IC50 (CT-1 cells) read?
A: 34.6 µM

Q: What about the IC50 (WHCO1 cells) of the same compound?
A: 36 µM

Q: With `COc1ccc(C[S+]([O-])CC=CSSCc2ccccc2)cc1` (mixture of isomers) [EZ-12, (E/Z)-1-phenyl-8-(p-methoxyphenyl)-2,3,7-trithiaocta-4-ene-7-oxide] as the compound, how does the IC50 (WHCO1 cells; WHCO1, 48 h) read?
A: 3.05 µM

Q: What about the IC50 (MDA-MB-231 cells) of the same compound?
A: 1.19 µM
